Measurements taken from US12630536B2, “Cyanotriazine derivative, preparation method therefor, and application thereof” (Chengdu Fanxi Biopharma Co., LTD., priority 2020, dated 2026).

Experiments:
[1] = tested on: golden hamsters fed with high-fat feedstuffs (hyperlipidemia model); assay: In-vivo pharmacodynamic test, high-fat feed hyperlipidemia model; conditions: oral once per day, 4 weeks
Protocol: Administration mode: oral administration was carried out once per day with a time interval of 24 hours for 4 consecutive weeks. During the experiment, the animals were weighed twice per week, and a remaining amount and an adding amount of the feedstuffs were recorded before each blood sampling detection for calculating a food intake of each group of animals during administration.
The food utilization rate represents a weight gain in gram of an animal taking per 100 g of feedstuffs, so that food utilization rate=weight gain (g)/food intake (100 g)×100%.

[2] = tested on: TR alpha-UAS-bla HEK 293T Cells; assay: TR cell-based agonist detection, β-lactamase reporter (LiveBLAzer FRET B/G), TR alpha
Protocol: (§1) A method for testing a THR-α/β activation activity of a compound by an in-vitro cell level was as follows.
(§2) Compounds were transferred to a 384-well plate by an ECHO liquid workstation, and each compound was diluted by 3 times with 10 gradient concentrations, which was in triplicate. 1.5×10^4 DMEM-cultured cells (TR beta-UAS-bla HEK 293T Cells) or 1.0×10^4 TR alpha-UAS-bla HEK 293T Cells were placed in the 384-well plate. HEK 293T-TR beta was incubated in an incubator for 16 hours, and HEK 293T-TR alpha was incubated in an incubator for 24 hours. A LiveBLAzer™-FRET B/G (CCF4-AM) substrate was added into the cell plate to detect expression of β-lactamase in cells, and under excitation of 409 nm, a product produced fluorescence with a wavelength of 447 nm. When the β-lactamase was not expressed, under excitation of 409 nm, fluorescence with a wavelength of 520 nm was directly produced through FRET. Combination between the compound and the protein was determined by detecting a ratio of the two kinds of fluorescence (blue/green, 460 nm/530 nm), thus calculating EC50 of the compound. […] Calculation of a factor Z (greater than 0.5) would be used for monitoring a stability of each experiment.

[3] = tested on: TR beta-UAS-bla HEK 293T Cells; assay: TR cell-based agonist detection, β-lactamase reporter (LiveBLAzer FRET B/G), TR beta
Protocol: as §1, §2

Cn1cnc2ccc(Oc3c(Br)cc(-n4nc(C#N)c(=O)[nH]c4=O)cc3Br)cc21 [Compound 1, 2-(3,5-dibromo-4-((1-methyl-1H-benzo[d]imidazol-6-yl)oxy)phenyl)-3,5-dioxo-2,3,4,5-tetra hydro-1,2,4-triazine-6-carbonitrile]
food utilization rate (weight gain (g)/food intake (100 g)×100%) [1]: reduced significantly | level of triglyceride in blood (TG) ([1]; 5 and 15 mg/kg, compared with the model group): significantly reduces | Emax ([2]; Homo sapiens, HEK-293T, 24 h, TR_cell-based agonist, TR_α, read-out: Maximum activity ratio): 205% | EC50 ([2]; Homo sapiens, Detection of TR_cell-based agonist, HEK 293T-TR alpha, 24 hours, read-out: TR_α_EC50): 4320 nM | Test cpd/T3 (maximum ratio) ([2]; TR_cell-based agonist, TR_α, maximum relative to T3): 93.2% | Emax ([3]; Homo sapiens, HEK-293T, 16 h, TR_cell-based agonist, TR_β, read-out: Maximum activity ratio (A460/A530)): 41.1% | EC50 ([3]; Homo sapiens, Detection of TR_cell-based agonist, HEK 293T-TR beta, 16 hours, read-out: TR_β_EC50): 577 nM | Measurement of cpd/T3 (maximum ratio) ([3]; TR_cell-based agonist, TR_β, maximum relative to T3): 7.5% | α/β ([3]; TR_cell-based agonist, ratio TR_α EC50 / TR_β EC50): 7.49
